Experimental data reported in ChEMBL document CHEMBL3217587, “The discovery of N-1 substituted 2-aminobenzimidazoles as zinc-dependent S. aureus biofilm inhibitors” (Medchemcomm, 2012).
≈ marks a conversion by molar mass, not a printed value. Calls of active or inactive are those of the source. No cut-off for these calls is given here.

Tests used:
Staphylococcus aureus [1] = test: Antimicrobial activity against methicillin-resistant Staphylococcus aureus ATCC 33591 after 16 hrs by broth microdilution method; format: functional; conditions: ATCC 33591, 16 h
Staphylococcus aureus [2] = test: Antimicrobial activity against methicillin-susceptible Staphylococcus aureus ATCC 29213 after 16 hrs by broth microdilution method; format: functional; conditions: ATCC 29213, 16 h
Acinetobacter baumannii = test: Antimicrobial activity against multidrug-resistant Acinetobacter baumannii ATCC BAA-1605 after 16 hrs by broth microdilution method; format: functional; conditions: ATCC BAA-1605, 16 h
Staphylococcus aureus [3] = test: Antimicrobial activity against methicillin-resistant Staphylococcus aureus ATCC 43300 assessed as inhibition of biofilm formation after 24 hrs by crystal violet staining-based microscopy; format: functional, organism-based; conditions: ATCC 43300, 24 h
Staphylococcus aureus [4] = test: Antibiofilm activity against methicillin-resistant Staphylococcus aureus ATCC 43300 assessed as biofilm dispersal at 20 uM after 24 hrs by crystal violet staining-based microscopy; format: functional, organism-based
Staphylococcus aureus [5] = test: Antimicrobial activity against methicillin-resistant Staphylococcus aureus ATCC 43300 after 16 hrs by broth microdilution method; format: functional; conditions: ATCC 43300, 16 h
Staphylococcus aureus [6] = test: Antimicrobial activity against methicillin-resistant Staphylococcus aureus ATCC BAA-1556 after 16 hrs by broth microdilution method; format: functional; conditions: ATCC BAA-1556, 16 h
Staphylococcus aureus [7] = test: Antimicrobial activity against methicillin-resistant Staphylococcus aureus ATCC BAA-811 after 16 hrs by broth microdilution method; format: functional; conditions: ATCC BAA-811, 16 h
Staphylococcus aureus [8] = test: Antimicrobial activity against methicillin-resistant Staphylococcus aureus ATCC BAA-1753 after 16 hrs by broth microdilution method; format: functional; conditions: ATCC BAA-1753, 16 h
Staphylococcus aureus [9] = test: Toxicity in methicillin-resistant Staphylococcus aureus ATCC BAA-44 assessed as inhibition of planktonic cell growth at IC50 after 2 to 24 hrs by spectrophotometry; format: organism-based
Staphylococcus aureus [10] = test: Antimicrobial activity against methicillin-resistant Staphylococcus aureus ATCC BAA-44 assessed as inhibition of biofilm formation after 24 hrs by crystal violet staining-based microscopy; format: functional, organism-based; conditions: ATCC BAA-44, 24 h
Staphylococcus aureus [11] = test: Antimicrobial activity against methicillin-resistant Staphylococcus aureus ATCC 700789 after 16 hrs by broth microdilution method; format: functional; conditions: ATCC 700789, 16 h
Staphylococcus aureus [12] = test: Antimicrobial activity against methicillin-resistant Staphylococcus aureus ATCC BAA-1685 after 16 hrs by broth microdilution method; format: functional; conditions: ATCC BAA-1685, 16 h
Pseudomonas aeruginosa = test: Antimicrobial activity against Pseudomonas aeruginosa PA14 after 16 hrs by broth microdilution method; format: functional; conditions: PA14, 16 h
Staphylococcus aureus [13] = test: Antimicrobial activity against methicillin-resistant Staphylococcus aureus ATCC BAA-44 after 16 hrs by broth microdilution method; format: functional; conditions: ATCC BAA-44, 16 h
Staphylococcus aureus [14] = test: Toxicity in methicillin-resistant Staphylococcus aureus ATCC 43300 assessed as inhibition of planktonic cell growth at IC50 after 2 to 24 hrs by spectrophotometry; format: organism-based

SMILES | MIC (Staphylococcus aureus [1]) | MIC (Staphylococcus aureus [2]) | MIC (Acinetobacter baumannii) | IC50 (Staphylococcus aureus [3]) | Activity (Staphylococcus aureus [4]) | MIC (Staphylococcus aureus [5]) | MIC (Staphylococcus aureus [6]) | MIC (Staphylococcus aureus [7]) | MIC (Staphylococcus aureus [8]) | Activity (Staphylococcus aureus [9]) | IC50 (Staphylococcus aureus [10]) | MIC (Staphylococcus aureus [11]) | MIC (Staphylococcus aureus [12]) | MIC (Pseudomonas aeruginosa) | MIC (Staphylococcus aureus [13]) | Activity (Staphylococcus aureus [14])
CCCCCc1ccc(C(=O)Nc2ccc3c(c2)nc(N)n3CCCCc2ccccc2)cc1.Cl | 16 µg/mL | 32 µg/mL | > 64 µg/mL | 6.9 µM | inactive | 32 µg/mL | 16 µg/mL | 32 µg/mL | > 64 µg/mL | Toxic | 14.3 µM | 32 µg/mL | 32 µg/mL | > 64 µg/mL | 32 µg/mL | Toxic
CCCCCc1ccc(C(=O)Nc2ccc3c(c2)nc(N)n3CCc2ccccn2)cc1.Cl | 32 µg/mL | 32 µg/mL | > 64 µg/mL | 7.2 µM | inactive | 64 µg/mL | 32 µg/mL | 32 µg/mL | 32 µg/mL | Non-toxic | 8.9 µM | 32 µg/mL | 64 µg/mL | > 64 µg/mL | 32 µg/mL | Non-toxic
CCCCCc1ccc(C(=O)Nc2ccc3c(c2)nc(N)n3-c2ccc(CCCCC)cc2)cc1.Cl | > 64 µg/mL | 64 µg/mL | > 64 µg/mL | > 20 µM | inactive | > 64 µg/mL | > 64 µg/mL | > 64 µg/mL | 64 µg/mL |  | > 20 µM | > 64 µg/mL | 64 µg/mL | > 64 µg/mL | > 64 µg/mL | 
CCCCCc1ccc(C(=O)Nc2ccc3c(c2)nc(N)n3CCc2ccccc2OC)cc1.Cl | 16 µg/mL | 16 µg/mL | > 64 µg/mL | 5.7 µM | inactive | 16 µg/mL | 16 µg/mL | 8 µg/mL | 16 µg/mL | Toxic | 7.3 µM | 16 µg/mL | 16 µg/mL | > 64 µg/mL | 16 µg/mL | Non-toxic
CCCCCCCCn1c(N)nc2cc(NC(=O)c3ccc(CCCCC)cc3)ccc21.Cl | 64 µg/mL | 64 µg/mL | > 64 µg/mL | 9.3 µM | inactive | 64 µg/mL | > 64 µg/mL | 32 µg/mL | 64 µg/mL | Non-toxic | 6.8 µM | 64 µg/mL | 64 µg/mL | > 64 µg/mL | 64 µg/mL | Non-toxic
CCCCCc1ccc(C(=O)Nc2ccc3[nH]c(N)nc3c2)cc1 | 16 µg/mL (≈ 49.6 µM) | 16 µg/mL (≈ 49.6 µM) | 16 µg/mL (≈ 49.6 µM) | 13.9 µM |  | 16 µg/mL (≈ 49.6 µM) | 8 µg/mL (≈ 24.8 µM) | 8 µg/mL (≈ 24.8 µM) | 8 µg/mL (≈ 24.8 µM) |  | > 20 µM | 8 µg/mL (≈ 24.8 µM) | 16 µg/mL (≈ 49.6 µM) | 16 µg/mL (≈ 49.6 µM) | 8 µg/mL (≈ 24.8 µM) | Toxic
CCCCCc1ccc(C(=O)Nc2ccc3c(c2)nc(N)n3Cc2ccccc2)cc1.Cl | > 64 µg/mL | > 64 µg/mL | > 64 µg/mL | 5.2 µM | inactive | > 64 µg/mL | > 64 µg/mL | > 64 µg/mL | > 64 µg/mL | Non-toxic | 6.8 µM | > 64 µg/mL | > 64 µg/mL | > 64 µg/mL | > 64 µg/mL | Non-toxic
CCCCCc1ccc(C(=O)Nc2ccc3c(c2)nc(N)n3CCc2nc3ccccc3[nH]2)cc1.Cl | 64 µg/mL | > 64 µg/mL | > 64 µg/mL | 7 µM | inactive | > 64 µg/mL | 64 µg/mL | > 64 µg/mL | > 64 µg/mL |  | > 20 µM | > 64 µg/mL | > 64 µg/mL | > 64 µg/mL | > 64 µg/mL | Non-toxic
CCCCCc1ccc(C(=O)Nc2ccc3c(c2)nc(N)n3CCCC)cc1.Cl | 8 µg/mL | 8 µg/mL | > 64 µg/mL | 4.5 µM | inactive | 8 µg/mL | 8 µg/mL | 8 µg/mL | 8 µg/mL | Non-toxic | 5 µM | 8 µg/mL | 8 µg/mL | > 64 µg/mL | 8 µg/mL | Non-toxic
CCCCCc1ccc(C(=O)Nc2ccc3c(c2)nc(N)n3CCCc2ccccc2)cc1.Cl | 16 µg/mL | 16 µg/mL | > 64 µg/mL | 4.7 µM | inactive | 16 µg/mL | 16 µg/mL | 16 µg/mL | 32 µg/mL | Non-toxic | 5.2 µM | 32 µg/mL | 32 µg/mL | > 64 µg/mL | 32 µg/mL | Non-toxic
CCCCCc1ccc(C(=O)Nc2ccc3c(c2)nc(N)n3CCc2cccc3ccccc23)cc1.Cl | 64 µg/mL | > 64 µg/mL | > 64 µg/mL | > 20 µM | inactive | > 64 µg/mL | > 64 µg/mL | > 64 µg/mL | > 64 µg/mL |  | > 20 µM | > 64 µg/mL | > 64 µg/mL | > 64 µg/mL | > 64 µg/mL | 
CCCCCc1ccc(C(=O)Nc2ccc3c(c2)nc(N)n3CCc2cccc(OC)c2)cc1.Cl | 16 µg/mL | 16 µg/mL | > 64 µg/mL | 6.1 µM | inactive | 16 µg/mL | 16 µg/mL | 16 µg/mL | 16 µg/mL | Non-toxic | 9.3 µM | 16 µg/mL | 16 µg/mL | > 64 µg/mL | 32 µg/mL | Toxic
CCCCCc1ccc(C(=O)Nc2ccc3c(c2)nc(N)n3Cc2ccc(OC)cc2)cc1.Cl | 16 µg/mL | > 64 µg/mL | > 64 µg/mL | 5.7 µM | inactive | 16 µg/mL | 16 µg/mL | 16 µg/mL | > 64 µg/mL | Toxic | 11.5 µM | 16 µg/mL | 16 µg/mL | > 64 µg/mL | 16 µg/mL | Non-toxic
CCCCCc1ccc(C(=O)Nc2ccc3c(c2)nc(N)n3CCCCc2c[nH]c3ccccc23)cc1.Cl | 32 µg/mL | 64 µg/mL | > 64 µg/mL | 5.7 µM | inactive | 32 µg/mL | 32 µg/mL | 64 µg/mL | 64 µg/mL | Toxic | 7.9 µM | 32 µg/mL | 32 µg/mL | > 64 µg/mL | 32 µg/mL | Toxic
CCCCCc1ccc(C(=O)Nc2ccc3c(c2)nc(N)n3CCc2ccc(OC)cc2)cc1.Cl | 16 µg/mL | 16 µg/mL | > 64 µg/mL | 6.2 µM | inactive | 8 µg/mL | 8 µg/mL | 16 µg/mL | 16 µg/mL | Toxic | 10.4 µM | 16 µg/mL | 8 µg/mL | > 64 µg/mL | 16 µg/mL | Toxic
CCCCCCCCCCCCn1c(N)nc2cc(NC(=O)c3ccc(CCCCC)cc3)ccc21.Cl | > 64 µg/mL | > 64 µg/mL | > 64 µg/mL | > 20 µM | inactive | > 64 µg/mL | > 64 µg/mL | > 64 µg/mL | > 64 µg/mL |  | > 20 µM | > 64 µg/mL | > 64 µg/mL | > 64 µg/mL | > 64 µg/mL | 
CCCCCc1ccc(C(=O)Nc2ccc3c(c2)nc(N)n3C)cc1.Cl | 32 µg/mL | 16 µg/mL | 64 µg/mL | > 20 µM | inactive | 16 µg/mL | 32 µg/mL | 64 µg/mL | 8 µg/mL |  | > 20 µM | 64 µg/mL | 16 µg/mL | 64 µg/mL | 32 µg/mL | 
CCCCCc1ccc(C(=O)Nc2ccc3c(c2)nc(N)n3C(C)C)cc1.Cl | 16 µg/mL | 16 µg/mL | 32 µg/mL | 7.9 µM | inactive | 16 µg/mL | 8 µg/mL | 16 µg/mL | 16 µg/mL | Non-toxic | 9.4 µM | 16 µg/mL | 8 µg/mL | > 64 µg/mL | 16 µg/mL | Non-toxic
